Biological target: T1, DNA gyrase (Staphylococcus aureus, UniProt P0A0K8+P20831)
T1 construct: gene gyrA; with DNA gyrase subunit B (GyrB)
Experiment: DNA gyrase supercoiling assay (H19 dye fluorescence, ProFoldin kit)
Format: biochemical

T1 sequence (P0A0K8 2-644): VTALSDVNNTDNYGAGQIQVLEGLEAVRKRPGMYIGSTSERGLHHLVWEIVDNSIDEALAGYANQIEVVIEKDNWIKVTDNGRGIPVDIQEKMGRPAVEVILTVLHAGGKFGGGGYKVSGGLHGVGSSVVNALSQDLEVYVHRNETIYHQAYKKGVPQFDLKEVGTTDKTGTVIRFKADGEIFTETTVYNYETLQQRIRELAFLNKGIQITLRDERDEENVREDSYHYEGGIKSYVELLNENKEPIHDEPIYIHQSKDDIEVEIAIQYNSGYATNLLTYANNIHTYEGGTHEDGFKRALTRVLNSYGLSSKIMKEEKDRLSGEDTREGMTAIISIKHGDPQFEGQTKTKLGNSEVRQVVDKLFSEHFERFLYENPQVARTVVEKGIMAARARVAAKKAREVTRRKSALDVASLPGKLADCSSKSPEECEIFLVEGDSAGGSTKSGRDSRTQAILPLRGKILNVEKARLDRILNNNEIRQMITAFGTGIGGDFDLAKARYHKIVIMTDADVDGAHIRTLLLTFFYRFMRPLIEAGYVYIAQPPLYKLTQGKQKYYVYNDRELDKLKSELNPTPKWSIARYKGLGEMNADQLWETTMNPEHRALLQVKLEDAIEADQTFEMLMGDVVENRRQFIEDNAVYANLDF
T1 sequence (P20831 whole entry): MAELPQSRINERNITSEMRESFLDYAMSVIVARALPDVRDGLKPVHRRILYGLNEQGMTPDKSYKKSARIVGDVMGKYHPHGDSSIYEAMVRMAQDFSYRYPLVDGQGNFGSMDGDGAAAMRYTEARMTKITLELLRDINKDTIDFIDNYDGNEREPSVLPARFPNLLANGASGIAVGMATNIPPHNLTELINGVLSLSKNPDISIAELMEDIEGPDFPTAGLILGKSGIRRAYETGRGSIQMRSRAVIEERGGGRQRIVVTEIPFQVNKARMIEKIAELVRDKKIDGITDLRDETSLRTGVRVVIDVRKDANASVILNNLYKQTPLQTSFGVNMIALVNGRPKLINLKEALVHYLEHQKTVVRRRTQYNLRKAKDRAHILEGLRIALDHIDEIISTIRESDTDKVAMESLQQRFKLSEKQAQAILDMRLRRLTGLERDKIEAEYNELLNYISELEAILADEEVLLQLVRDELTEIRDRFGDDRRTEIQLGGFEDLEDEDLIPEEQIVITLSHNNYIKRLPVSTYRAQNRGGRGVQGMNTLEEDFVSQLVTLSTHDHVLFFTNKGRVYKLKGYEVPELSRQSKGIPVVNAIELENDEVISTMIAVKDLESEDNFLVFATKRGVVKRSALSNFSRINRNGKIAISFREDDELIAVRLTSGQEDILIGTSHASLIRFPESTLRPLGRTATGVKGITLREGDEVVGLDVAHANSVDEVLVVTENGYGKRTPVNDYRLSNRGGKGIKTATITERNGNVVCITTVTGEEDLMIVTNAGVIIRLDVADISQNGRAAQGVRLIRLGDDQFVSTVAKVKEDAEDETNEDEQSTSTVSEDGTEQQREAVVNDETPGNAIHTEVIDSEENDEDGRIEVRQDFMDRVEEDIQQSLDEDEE

SMILES: O=C1c2ccccc2C(=O)c2sc(N3CCNCC3)nc21 [PNT, 2-(piperazin-1-yl)naphtho[2,3-d]thiazole-4,9-dione]
- IC50: 372 µM

Source: article PMC10975047, “Antimicrobial Activity of 2-(Piperazin-1-yl)naphtho[2,3-d]thiazole-4,9-dione against Staphylococcus Strains” (Molecules, 2024)
